Counter-ions that a name gives are not always drawn.
Tests used:
[1] = in vivo; cited from earlier work
[2] = system: uptake of 3H-noradrenaline; assay: Inhibition of uptake of 3H-noradrenaline in mouse midbrain slices after in vivo (i.p.) administration; details: ip, at the dose 101 μmole/kg i.p., read-out: inhibition recorded (uptake of 3H-NA, in vivo)
Experimental: It is not possible by experimental means to induce depressions in laboratory animals. In order to evaluate a possible anti-depressive effect of new substances biochemical-pharmacological test methods must be resorted to. One such method, which seems to give a good indication of the potential anti-depressive effects of the test substances, is described in Europ. […] The test substances were administered intraperitoneally half an hour before the animals were killed. […] The incubation time was 5 minutes with 5 minutes of preincubation before the labelled amines were added. The slices were dissolved in Soluene® and the amounts of radio-active amines taken up were determined by liquid scintillation. […] Active uptake is defined as that part of the radioactive uptake which is inhibited by a high concentration of cocaine.

[3] = system: uptake of 14C-5-hydroxytryptamine; assay: Inhibition of uptake of 14C-5-HT in mouse midbrain slices after in vivo (i.p.) administration; details: i.p. half an hour before killing, dose producing 50 percent decrease of active uptake; for ED50: Mus musculus, ip, 0.5 h
Experimental: (§1) It is not possible by experimental means to induce depressions in laboratory animals. In order to evaluate a possible anti-depressive effect of new substances biochemical-pharmacological test methods must be resorted to. One such method, which seems to give a good indication of the potential anti-depressive effects of the test substances, is described in Europ.
(§2) The test substances were administered intraperitoneally half an hour before the animals were killed. […] The incubation time was 5 minutes with 5 minutes of preincubation before the labelled amines were added. The slices were dissolved in Soluene® and the amounts of radio-active amines taken up were determined by liquid scintillation. […] Active uptake is defined as that part of the radioactive uptake which is inhibited by a high concentration of cocaine.

[4] = system: uptake of 14C-5-hydroxytryptamine; assay: Inhibition of uptake of 14C-5-HT in mouse midbrain slices, in vitro; assay type: biochemical; details: 5 minutes preincubation, 5 minutes incubation
Experimental: as §1, §2
In the in vitro method, slices of mouse midbrain were preincubated for 5 minutes with a solution of the compound to be tested and then incubated as described above.

EC50 [4] [nM]	SMILES	antidepressive effect [1]	inhibition at 101 µmol/kg [2] [%]	Uptake of 14C-5-HT, in vivo ED50 ([3]; 30 min) [μmole/kg i.p.]	ED50 [3] [µmol/kg]
–	CN(C)CC=C(c1ccccc1)c1ccccc1	have an antidepressive effect	–	–	–
–	CNC/C=C(/c1ccc(Br)cc1)c1cccnc1 [H, Z, hydrochloride, 3-(4-bromophenyl)-N-methyl-3-(3-pyridyl)-allylamine]	–	38	15.2	–
500	CNC/C=C(/c1ccc(Br)cc1)c1cccnc1 [H, Z, oxalate, 3-(4-bromophenyl)-N-methyl-3-(3-pyridyl)-allylamine]	–	–	–	18
500	CNCC=C(c1ccc(Br)cc1)c1cccnc1 [H, mixture, oxalate, 3-(4-bromophenyl)-N-methyl-3-(3-pyridyl)-allylamine]	–	–	–	32

Source: US4186202A, “Phenyl-pyridylamine derivatives” (priority 1974, dated 1980)
